In ChEMBL document CHEMBL1201862, “PubChem BioAssay data set” (2004) one finds IC50, AC50 and EC50 data, which are given here for 15 molecules.

The source made the active and inactive calls.

Experiment [1] deals with T1, Low molecular weight phosphotyrosine protein phosphatase (Homo sapiens, UniProt P24666).
T1 sequence (P24666 whole entry): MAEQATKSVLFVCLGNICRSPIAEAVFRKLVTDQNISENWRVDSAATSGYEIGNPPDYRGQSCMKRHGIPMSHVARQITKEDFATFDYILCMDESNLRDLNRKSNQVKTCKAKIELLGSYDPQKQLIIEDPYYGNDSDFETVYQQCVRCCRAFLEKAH
It is filed as functional. The note with it: read-out: IC50_Mean.

Experiment [2] has as its target T1, Low molecular weight phosphotyrosine protein phosphatase. The format is functional. The conditions noted are these: read-out: IC50_Mean. The source holds these as a separate data set.
In experiment [3] the test system is Escherichia coli. Kind of experiment: microbe, parasite or virus in culture.
Experiment [4] can be described thus: NIH-3T3 fibroblast cytotoxicity, dose response, cytotoxicity control, cell-based, fluorescence, Alamar Blue, secondary assay (AID 2327).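 Further: NIH-3T3 mouse fibroblasts cultured with fluconazole at 8 µg/mL.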 The format is functional. (In general: Resazurin is reduced to fluorescent resorufin, in cell work by metabolically active cells.)
Experiment [5] is described as follows: C. albicans growth with fluconazole, confirmation, fluorescence, retest (AID 2467). It is filed as functional, cell-based.
The target in experiment [6] is T2, Serine/threonine-protein phosphatase (Candida dubliniensis (strain CD36 / CBS 7987 / NCPF 3949 / NRRLY-17841) (Yeast), UniProt B9W6M3).
T2 sequence (B9W6M3 whole entry): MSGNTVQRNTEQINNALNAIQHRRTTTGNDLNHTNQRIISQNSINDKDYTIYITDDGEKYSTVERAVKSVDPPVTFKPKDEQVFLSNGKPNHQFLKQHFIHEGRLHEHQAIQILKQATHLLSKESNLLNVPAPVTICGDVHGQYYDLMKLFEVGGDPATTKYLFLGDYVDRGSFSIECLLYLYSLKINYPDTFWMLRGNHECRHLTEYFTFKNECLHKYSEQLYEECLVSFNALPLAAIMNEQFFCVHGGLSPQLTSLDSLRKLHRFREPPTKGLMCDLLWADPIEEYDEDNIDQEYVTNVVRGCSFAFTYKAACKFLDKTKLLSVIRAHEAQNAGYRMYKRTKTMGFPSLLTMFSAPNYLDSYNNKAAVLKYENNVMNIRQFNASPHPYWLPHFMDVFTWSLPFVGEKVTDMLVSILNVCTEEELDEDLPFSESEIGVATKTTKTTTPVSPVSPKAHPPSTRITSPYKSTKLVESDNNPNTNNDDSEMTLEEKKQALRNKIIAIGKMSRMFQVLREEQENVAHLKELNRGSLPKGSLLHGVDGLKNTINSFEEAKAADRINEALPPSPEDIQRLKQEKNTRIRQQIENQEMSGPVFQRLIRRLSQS
Kind of experiment: calcineurin pathway inhibitors in yeast reporter, dose response, S. cerevisiae, CDRE-lacZ, luminescence, secondary (AID 2388).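 Further: yeast reporter cells carrying a calcineurin-responsive lacZ construct stimulated with calcium chloride; luminescent beta-galactosidase reporter signal in whole cells rather than isolated phosphatase activity; potency for inhibition where a drop in reporter signal means calcineurin blockade.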 The format is functional, cell-based.

For experiment [7], the target named is ATP-dependent molecular chaperone HSP82 (Candida albicans (strain WO-1) (Yeast), UniProt C4YTQ8). The experiment can be described thus: loss of DOC-induced GRE-beta-galactosidase reporter signal, dose response, Hsp90 inhibitor project, S. cerevisiae, luminescence (AID 2400).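 Further: beta-galactosidase luminescence from glucocorticoid response element reporter as proxy for Hsp90 function; inhibitor potency where signal loss means Hsp90 inhibition.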 The format is functional, cell-based.
Sequence of ATP-dependent molecular chaperone HSP82 (C4YTQ8 whole entry): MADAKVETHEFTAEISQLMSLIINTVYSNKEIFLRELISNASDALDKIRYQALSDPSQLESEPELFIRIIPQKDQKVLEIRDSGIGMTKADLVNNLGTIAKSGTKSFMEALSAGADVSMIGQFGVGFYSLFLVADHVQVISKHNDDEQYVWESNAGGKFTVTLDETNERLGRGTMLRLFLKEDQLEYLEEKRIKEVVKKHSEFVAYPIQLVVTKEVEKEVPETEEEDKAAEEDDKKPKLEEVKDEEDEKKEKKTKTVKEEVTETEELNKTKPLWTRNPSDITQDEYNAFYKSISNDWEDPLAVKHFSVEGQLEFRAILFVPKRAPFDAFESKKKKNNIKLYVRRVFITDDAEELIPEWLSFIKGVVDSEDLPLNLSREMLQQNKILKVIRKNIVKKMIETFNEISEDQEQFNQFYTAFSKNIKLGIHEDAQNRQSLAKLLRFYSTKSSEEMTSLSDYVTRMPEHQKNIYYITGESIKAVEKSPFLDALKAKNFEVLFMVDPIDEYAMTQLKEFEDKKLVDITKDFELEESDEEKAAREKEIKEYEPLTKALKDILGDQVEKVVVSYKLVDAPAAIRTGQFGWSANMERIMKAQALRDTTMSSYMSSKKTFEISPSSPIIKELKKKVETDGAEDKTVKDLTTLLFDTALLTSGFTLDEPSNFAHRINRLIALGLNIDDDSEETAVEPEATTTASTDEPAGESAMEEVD
Experiment [8] deals with SUMO-activating enzyme (Homo sapiens, UniProt Q9UBT2). The experiment can be described thus: SUMOylation inhibitor hit validation, confirmation, SUMOylation inhibitor project, biochemical, AlphaScreen (AID 2018). It is filed as functional. In general terms: Alpha assays give light when donor and acceptor beads are brought close together.
Experiment [9] concerns the target Voltage-dependent T-type calcium channel subunit alpha-1H (Homo sapiens, UniProt O95180). It is filed as functional.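 Further: channel activity triggered by adding a high calcium stimulation buffer.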
Experiment [10] concerns INS1. Kind of experiment: beta cell apoptosis inhibitors, cytokine rescue, dose response, luminescence, retest (AID 449756).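 Further: cell death triggered by IL-1 beta plus TNF-alpha plus IFN-gamma mixture; protective hits raise ATP signal compared with cytokine alone wells.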 The format is functional, cell-based. The note with it: Rattus norvegicus.
Experiment [11] can be described thus: inhibitors of PGC1a acetylation in cells, dose response, cell-based, cherry-picked samples (AID 720514).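 Further: potency may reflect raised or lowered acetylation signal.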 It is filed as functional.
For experiment [12], the target named is Ras and Rab interactor 1/Tyrosine-protein kinase ABL1 (Homo sapiens, UniProt P00519+Q13671). The format is functional.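 Further: biochemical TR-FRET dose-response test measuring inhibition of binding between Rin1 and Abl proteins.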
Sequence of Ras and Rab interactor 1/Tyrosine-protein kinase ABL1 (P00519 whole entry): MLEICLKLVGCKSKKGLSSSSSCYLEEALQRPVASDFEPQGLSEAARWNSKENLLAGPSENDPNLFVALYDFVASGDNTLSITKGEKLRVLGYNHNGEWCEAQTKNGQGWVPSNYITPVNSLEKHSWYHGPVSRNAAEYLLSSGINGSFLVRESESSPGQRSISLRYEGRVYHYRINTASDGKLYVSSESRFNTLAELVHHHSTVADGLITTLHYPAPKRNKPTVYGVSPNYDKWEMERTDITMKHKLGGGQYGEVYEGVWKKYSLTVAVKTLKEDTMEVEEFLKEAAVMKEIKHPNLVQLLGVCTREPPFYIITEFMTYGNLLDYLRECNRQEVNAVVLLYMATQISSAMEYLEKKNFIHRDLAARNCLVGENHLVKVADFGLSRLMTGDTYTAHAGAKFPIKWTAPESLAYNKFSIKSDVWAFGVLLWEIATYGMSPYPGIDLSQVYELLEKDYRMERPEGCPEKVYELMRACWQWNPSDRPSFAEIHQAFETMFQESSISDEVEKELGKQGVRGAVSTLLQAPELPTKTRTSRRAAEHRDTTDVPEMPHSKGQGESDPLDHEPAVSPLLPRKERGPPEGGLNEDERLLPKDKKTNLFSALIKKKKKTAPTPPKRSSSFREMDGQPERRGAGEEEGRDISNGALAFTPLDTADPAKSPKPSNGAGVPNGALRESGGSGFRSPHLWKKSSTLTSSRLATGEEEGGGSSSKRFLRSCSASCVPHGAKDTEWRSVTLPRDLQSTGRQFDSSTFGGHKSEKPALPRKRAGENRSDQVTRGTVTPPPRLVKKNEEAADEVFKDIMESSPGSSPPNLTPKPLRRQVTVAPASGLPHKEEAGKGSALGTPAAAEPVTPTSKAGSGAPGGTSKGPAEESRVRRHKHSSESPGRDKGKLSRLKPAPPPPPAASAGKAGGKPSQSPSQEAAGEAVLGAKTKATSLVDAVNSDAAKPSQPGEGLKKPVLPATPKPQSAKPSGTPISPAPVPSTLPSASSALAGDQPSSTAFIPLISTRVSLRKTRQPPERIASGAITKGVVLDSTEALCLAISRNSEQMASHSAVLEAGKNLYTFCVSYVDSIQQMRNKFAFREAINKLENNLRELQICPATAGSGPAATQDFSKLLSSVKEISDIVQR
Sequence of Ras and Rab interactor 1/Tyrosine-protein kinase ABL1 (Q13671 whole entry): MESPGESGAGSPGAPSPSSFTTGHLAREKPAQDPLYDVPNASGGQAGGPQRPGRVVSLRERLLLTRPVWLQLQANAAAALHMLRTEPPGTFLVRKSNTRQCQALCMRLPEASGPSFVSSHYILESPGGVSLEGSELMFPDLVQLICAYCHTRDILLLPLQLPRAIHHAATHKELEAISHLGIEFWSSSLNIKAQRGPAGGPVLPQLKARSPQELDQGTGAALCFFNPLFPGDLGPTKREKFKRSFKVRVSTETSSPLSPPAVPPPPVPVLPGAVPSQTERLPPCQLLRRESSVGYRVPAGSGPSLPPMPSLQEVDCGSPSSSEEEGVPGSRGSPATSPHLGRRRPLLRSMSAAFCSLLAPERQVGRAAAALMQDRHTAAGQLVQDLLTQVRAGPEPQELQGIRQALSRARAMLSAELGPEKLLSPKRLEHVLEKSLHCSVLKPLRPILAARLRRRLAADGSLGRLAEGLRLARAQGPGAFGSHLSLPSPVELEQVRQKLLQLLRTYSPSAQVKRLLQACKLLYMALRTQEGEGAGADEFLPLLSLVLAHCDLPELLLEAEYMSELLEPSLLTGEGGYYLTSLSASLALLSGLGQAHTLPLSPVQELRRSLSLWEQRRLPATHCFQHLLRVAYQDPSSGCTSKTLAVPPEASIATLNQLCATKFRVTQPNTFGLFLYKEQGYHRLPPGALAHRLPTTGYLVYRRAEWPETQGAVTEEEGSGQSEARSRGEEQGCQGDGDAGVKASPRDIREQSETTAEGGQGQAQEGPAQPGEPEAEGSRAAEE
The target of experiment [13] is T3, Corticotropin-releasing factor receptor 2/Corticotropin-releasing factor-binding protein (Homo sapiens, UniProt P24387+Q13324).
T3 sequence (Q13324 whole entry): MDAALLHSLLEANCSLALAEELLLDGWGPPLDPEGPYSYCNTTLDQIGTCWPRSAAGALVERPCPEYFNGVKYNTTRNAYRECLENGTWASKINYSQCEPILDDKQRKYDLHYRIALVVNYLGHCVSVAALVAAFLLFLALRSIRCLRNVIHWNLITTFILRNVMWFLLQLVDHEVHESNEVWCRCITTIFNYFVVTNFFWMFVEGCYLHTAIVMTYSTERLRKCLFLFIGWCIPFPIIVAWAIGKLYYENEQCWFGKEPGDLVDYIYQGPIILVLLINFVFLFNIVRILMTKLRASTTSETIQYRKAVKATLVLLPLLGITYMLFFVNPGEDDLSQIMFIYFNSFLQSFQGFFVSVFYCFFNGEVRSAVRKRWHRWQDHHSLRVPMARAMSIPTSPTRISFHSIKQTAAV
T3 sequence (P24387 whole entry): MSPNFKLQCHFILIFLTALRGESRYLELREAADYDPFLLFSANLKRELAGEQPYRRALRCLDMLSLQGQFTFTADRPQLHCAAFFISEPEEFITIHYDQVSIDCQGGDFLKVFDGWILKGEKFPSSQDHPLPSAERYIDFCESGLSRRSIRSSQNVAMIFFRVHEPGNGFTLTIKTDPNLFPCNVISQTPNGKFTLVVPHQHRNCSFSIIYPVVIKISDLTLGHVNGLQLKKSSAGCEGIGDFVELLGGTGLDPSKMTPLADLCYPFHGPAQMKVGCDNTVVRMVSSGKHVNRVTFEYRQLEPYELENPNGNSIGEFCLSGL
Kind of experiment: Dose Response confirmation of uHTS hits for small molecule antagonists of the CRF-binding protein and CRF-R2 receptor complex. The conditions noted are these: read-out: IC50_Mean. The format is functional.

The target of experiment [14] is T3, Corticotropin-releasing factor receptor 2/Corticotropin-releasing factor-binding protein. The experiment can be described thus: activators of CRF receptor 2 with binding protein – uHTS hits, confirmation (AID 602473). The format is functional. The note with it: read-out: EC50_Mean.
A short description of experiment [15]: CRF-BP/CRF-R2 complex antagonists, dose response, cell-based, uHTS hits, 384-well (AID 651639). The format is functional, Homo sapiens. The note with it: read-out: IC50_Mean.
Experiment [16] can be described thus: cytotoxicity in HEK-293T cells, dose response, cytotoxicity control for TCR NF-kB inhibitor project, luminescence, T-cell screen hits (AID 489026).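 Further: cells exposed to compound about 14 hours before the viability readout.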 It is filed as functional, cell-based.
In experiment [17] the target is T4, Microphthalmia-associated transcription factor (Homo sapiens, UniProt O75030).
T4 sequence (O75030 whole entry): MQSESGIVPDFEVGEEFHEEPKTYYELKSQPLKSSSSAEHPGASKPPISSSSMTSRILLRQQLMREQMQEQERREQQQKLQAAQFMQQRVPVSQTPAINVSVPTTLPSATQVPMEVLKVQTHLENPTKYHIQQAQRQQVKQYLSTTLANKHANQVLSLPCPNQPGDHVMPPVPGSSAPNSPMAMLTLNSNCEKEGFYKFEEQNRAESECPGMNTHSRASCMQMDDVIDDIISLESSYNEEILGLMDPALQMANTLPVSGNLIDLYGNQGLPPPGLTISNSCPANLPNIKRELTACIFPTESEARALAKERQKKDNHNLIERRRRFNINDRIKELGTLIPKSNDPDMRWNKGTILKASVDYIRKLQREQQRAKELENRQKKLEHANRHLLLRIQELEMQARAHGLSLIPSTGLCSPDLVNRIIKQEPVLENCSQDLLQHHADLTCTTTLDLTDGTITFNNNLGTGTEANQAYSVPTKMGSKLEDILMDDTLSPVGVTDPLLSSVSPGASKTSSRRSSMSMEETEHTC
The experiment can be described thus: TRPM1 promoter luciferase signal decrease, dose response, MITF inhibitor project, cell-based, SK-MEL-5, cherry-picked, set 3 (AID 493073).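 Further: SK-MEL-5 melanoma cells with luciferase driven by the MITF target TRPM1 promoter.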 The format is functional.

In experiment [18] the test system is BJ. The experiment can be described thus: cytotoxicity toward BJ-TERT fibroblasts, dose response, cell-based, RAS-independent, luminescence (AID 1933). The format is functional. The note with it: Homo sapiens.
Experiment [19] has as its system BJ. Kind of experiment: cells. The format is functional, cell-based. The conditions noted are these: Homo sapiens.
The nature of experiment [20]: cytotoxicity toward DRD oncogenic fibroblasts, dose response, cell-based, non-viral oncogenic, luminescence (AID 1934). The format is functional. The note with it: Homo sapiens.

Sequence of Voltage-dependent T-type calcium channel subunit alpha-1H (O95180 whole entry): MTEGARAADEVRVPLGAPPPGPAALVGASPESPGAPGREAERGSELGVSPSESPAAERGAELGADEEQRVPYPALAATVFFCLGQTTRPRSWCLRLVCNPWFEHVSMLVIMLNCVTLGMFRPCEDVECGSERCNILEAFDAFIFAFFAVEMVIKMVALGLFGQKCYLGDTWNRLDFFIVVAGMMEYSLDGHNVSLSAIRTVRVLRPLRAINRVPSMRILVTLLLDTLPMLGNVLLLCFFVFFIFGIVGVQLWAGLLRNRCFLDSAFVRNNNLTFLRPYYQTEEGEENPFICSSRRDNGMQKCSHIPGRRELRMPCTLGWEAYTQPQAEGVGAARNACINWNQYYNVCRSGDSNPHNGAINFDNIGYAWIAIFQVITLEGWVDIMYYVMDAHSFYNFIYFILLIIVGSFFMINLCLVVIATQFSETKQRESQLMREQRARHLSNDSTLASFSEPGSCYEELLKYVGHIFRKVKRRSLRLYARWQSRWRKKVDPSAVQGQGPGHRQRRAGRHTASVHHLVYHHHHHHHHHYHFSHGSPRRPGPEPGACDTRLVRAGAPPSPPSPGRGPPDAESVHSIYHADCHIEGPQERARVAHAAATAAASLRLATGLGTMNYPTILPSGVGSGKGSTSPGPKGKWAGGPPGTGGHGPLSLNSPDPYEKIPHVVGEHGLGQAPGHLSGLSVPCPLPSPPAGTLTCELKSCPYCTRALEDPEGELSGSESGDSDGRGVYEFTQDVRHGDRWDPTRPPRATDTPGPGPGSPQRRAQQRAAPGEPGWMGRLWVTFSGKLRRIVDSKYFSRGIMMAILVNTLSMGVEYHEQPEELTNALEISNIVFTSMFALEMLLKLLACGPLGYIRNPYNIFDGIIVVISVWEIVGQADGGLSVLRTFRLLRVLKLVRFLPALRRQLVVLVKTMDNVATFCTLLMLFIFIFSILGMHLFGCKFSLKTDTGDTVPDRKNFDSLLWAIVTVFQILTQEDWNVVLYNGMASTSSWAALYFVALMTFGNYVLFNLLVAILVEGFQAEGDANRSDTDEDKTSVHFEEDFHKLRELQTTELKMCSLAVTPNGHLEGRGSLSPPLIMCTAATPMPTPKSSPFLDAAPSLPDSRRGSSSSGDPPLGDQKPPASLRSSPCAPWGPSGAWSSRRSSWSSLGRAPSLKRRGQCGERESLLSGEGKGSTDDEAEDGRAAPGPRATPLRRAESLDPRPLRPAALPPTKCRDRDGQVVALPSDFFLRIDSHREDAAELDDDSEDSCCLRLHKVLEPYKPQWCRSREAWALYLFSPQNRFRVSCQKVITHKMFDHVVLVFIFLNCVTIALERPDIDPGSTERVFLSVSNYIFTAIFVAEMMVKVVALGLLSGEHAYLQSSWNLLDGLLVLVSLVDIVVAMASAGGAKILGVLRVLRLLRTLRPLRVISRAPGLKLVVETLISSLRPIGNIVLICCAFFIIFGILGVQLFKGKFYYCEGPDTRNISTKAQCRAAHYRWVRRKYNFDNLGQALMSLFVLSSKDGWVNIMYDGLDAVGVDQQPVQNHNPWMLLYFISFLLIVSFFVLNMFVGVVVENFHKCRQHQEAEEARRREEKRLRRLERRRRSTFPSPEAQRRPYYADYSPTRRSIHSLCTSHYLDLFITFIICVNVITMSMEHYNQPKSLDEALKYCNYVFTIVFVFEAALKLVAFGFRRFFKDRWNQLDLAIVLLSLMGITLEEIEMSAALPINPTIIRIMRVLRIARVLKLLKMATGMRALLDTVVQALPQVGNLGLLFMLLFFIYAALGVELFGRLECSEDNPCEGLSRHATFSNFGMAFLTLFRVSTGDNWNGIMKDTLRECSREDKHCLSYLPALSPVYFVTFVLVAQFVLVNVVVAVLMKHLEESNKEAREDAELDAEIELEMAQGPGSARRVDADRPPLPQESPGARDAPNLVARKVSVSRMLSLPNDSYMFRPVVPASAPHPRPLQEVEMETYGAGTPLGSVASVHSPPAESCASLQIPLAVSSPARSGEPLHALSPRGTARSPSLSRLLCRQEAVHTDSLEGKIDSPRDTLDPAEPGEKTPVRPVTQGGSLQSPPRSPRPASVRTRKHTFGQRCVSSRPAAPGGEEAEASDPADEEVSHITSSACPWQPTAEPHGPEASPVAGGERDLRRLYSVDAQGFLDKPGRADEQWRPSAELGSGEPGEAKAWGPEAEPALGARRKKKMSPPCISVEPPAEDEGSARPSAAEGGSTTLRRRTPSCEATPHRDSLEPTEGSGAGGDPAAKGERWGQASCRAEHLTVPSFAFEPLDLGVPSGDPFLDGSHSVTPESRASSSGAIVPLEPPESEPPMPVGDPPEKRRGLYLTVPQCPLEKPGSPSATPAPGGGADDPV

On to `O=c1cc(-c2cc3ccccc3o2)c2cc(O)ccc2o1`, for which the IC50 in experiment [1] was 24.1 µM (inactive); in experiment [2] it was 19.7 µM (active).
One may read the AC50 as the concentration at which the activity in the assay is half-maximal. As to `O=C(Nc1ccc(Br)cc1)C1CC(O)CN1C(=O)Oc1ccccc1` (centres undefined), in experiment [3], the AC50 is 42.7 µM (active).
On to `COCCn1c(=O)[nH]c(=O)c2cc(C(=O)c3cc(Cl)ccc3O)cnc21`, for which the EC50 in experiment [4] is > 160 µM (inactive); in [5] it was 1.12 µM (active); in experiment [6], > 180 µM (inactive); in experiment [7] it was > 160 µM (inactive).
For `O=C(Nc1ccsc1C(=O)NC1CCCCC1)c1ccccc1`, in experiment [3], the concentration at half-maximal activity (AC50) was 26 µM (active).
On to `Cc1ccc(NC(=O)Cn2c(=O)oc3cc(S(=O)(=O)N4CCC(C)CC4)ccc32)cc1C`, for which the IC50 in experiment [8] is 24.4 µM (active). Further, the EC50 in [9] was 5.17 µM (active). The half-maximal activity concentration (AC50) in experiment [10] is 8.95 µM (active).
On to `COc1ccc(Nc2ccnc3ccccc23)cc1`, for which the IC50 in experiment [1] was 30.1 µM (inactive); in [2], 23.4 µM (inactive). Also, the AC50 in [11] is 28.3 µM (active).
As for `Cc1c(C(=O)NCCN2CCOCC2)oc2ccc(Br)cc12`, the IC50 in experiment [12] is 1.02 µM (active).
As for `CSc1c(C#N)sc(=S)n1-c1ccc(C)cc1`, the IC50 in experiment [13] was 11.9 µM (active); in experiment [15], > 20 µM (inactive). Also, the EC50 in experiment [14] was > 53 µM (inactive).
Regarding `Cc1ccc2c(c1)COc1c3ccc(C(=O)O)cc3nn1-2`, the IC50 in experiment [16] is > 80 µM (inactive). Moreover, the AC50 in experiment [17] is 2.23 µM (active).
For `Cc1cc(C(=O)N2CC=C(c3ccccc3)CC2)c2ccccc2n1`, the EC50 in experiment [18] was 1.32 µM (active); in experiment [19], 86.7 µM (active); in experiment [20] it was 0.653 µM (active). In experiment [16], the IC50 was > 80 µM (inactive).
With `N#CN=C(Nc1cccc(F)c1)SCc1ccccc1F`, the IC50 in [13] is 6.82 µM (active); in [15], 1.67 µM (active). Further, in experiment [14], the EC50 was > 53 µM (inactive).
With `CN(CC(=O)NCCN1CCOCC1)S(=O)(=O)c1ccc(Cl)cc1`, the AC50 in [3] is 23.2 µM (active).
For `CCCn1nc(C(=O)N(C)CC(=O)Nc2ccc(OCC)c(OCC)c2)c2ccccc2c1=O`, the IC50 in experiment [12] is 10.5 µM (inactive).
Consider `Oc1nc2ccccc2n1C1CCN(C(c2ccnc3ccccc23)c2nnnn2-c2ccc3c(c2)OCCO3)CC1` (centres undefined), for which the IC50 in [12] is 15.3 µM (inactive).
Regarding `Nc1nc(=O)[nH]cc1F` [FLUCYTOSINE], the EC50 is > 160 µM (inactive) in experiment [4], 0.252 µM (active) in experiment [5], > 180 µM (inactive) in experiment [6] and > 160 µM (inactive) in experiment [7].
